Data published in patent US9822373B2, “Mutant cells for protein secretion and lignocellulose degradation” (The Regents of the University of California, priority 2011, dated 2017).

What was measured:
[1] = system: Neurospora crassa; test: Bioreactor cellulase production, total secreted protein in supernatant; assay type: cell-based; details: pre-grown 24 hours on 1% sucrose, induction with 0.2%
Method: Cellulase production was carried out in a 3.7 L bioreactor (BioEngineering AG) at an operating volume of 1 L. The bioreactor was equipped with one 48 mm Rushton impeller and four equally spaced baffles to provide adequate mixing. Impeller speed was controlled at 200 rpm for 8 hours to allow spore germination followed by 500 rpm for the remainder of the experiment. The temperature was maintained at 25° C., and medium pH was controlled at 5.5 using 40% phosphoric acid and 1:5 diluted ammonium hydroxide. The dissolved oxygen was maintained at a level greater than 20% of the saturation value of the medium by varying the aeration rate between 0.5 and 3 VVM in response to the dissolved oxygen tension. Minimal growth medium with 1% w/v sucrose as the sole carbon source (unless otherwise noted) was inoculated with 10^9 conidia. After 24 hours initial growth, cellulase production was induced with either cellobiose or Avicel® added to a final concentration of 0.2% w/v. Supernatant samples were collected at timepoint 0, 12 hours before induction, at induction, as well as 4, 8, 12, 24 and 36 hours post induction. Samples were spun at 4000 rpm for 5 minutes to pellet biomass and the supernatant was filtered through a 0.2 μm PES filter before being stored at −20° C. until all samples were collected.
Total secreted proteins were measured using the Bio-Rad Protein Assay kit (Bio-Rad) and visualized by running 15 μl of unconcentrated supernatant on a Criterion 4-14% Tris-HCL polyacrylamide gel and stained with Thermo Scientific GelCode Blue Stain Reagent.

[2] = system: cbh-2 / gh6-2 (NCU09680); test: Quantitative RT-PCR of cbh-2/gh6-2 expression after 4 h induction with a carbon source; assay type: cell-based, Neurospora crassa
Method: (§1) Strains were inoculated at an OD595 equal to 0.05 in 50 ml Vogel's salts with 2% (wt/vol) sucrose in a 250 ml Erlenmeyer flask and grown under constant light at 200 rpm for 16 hours. The biomass was then spun at 4000 rpm for 10 minutes and washed in Vogel's twice to remove any excess sucrose. The biomass was then added to a new 50 ml culture with 2% (wt/vol) sucrose, cellobiose (Sigma) or Avicel® PH 101 (Avicel®). Cultures were induced for 4 hours under constant light at 200 rpm. The culture biomass was then harvested by filtration over a Whatman glass microfiber filter (GF/F) on a Buchner funnel and washed with 50 ml Vogel's, biomass was flash frozen in liquid Nitrogen and stored at −80° C.
(§2) Total RNA from frozen samples was isolated using Zirconia/Silica beads (0.2 g, 0.5 mm diameter; Biospec) and a Mini-Beadbeater-96 (Biospec) with 1 mL TRIzol reagent (Invitrogen) according to manufacturer's instructions. Total RNA was further purified by digestion with TURBO DNA-free (Ambion) and an RNeasy kit (Qiagen). RNA integrity was checked by Nanodrop and agarose gel electrophoresis.
Quantitative RT-PCR was performed using the EXPRESS One-Step SYBR GreenER Kit (Invitrogen) and the StepOnePlus Real-Time PCR System (Applied Biosystems). Reactions were performed in triplicate with a total reaction volume of 10 ul including 300 nM each forward and reverse primers and 75 ng template RNA. Data Analysis was performed by the StepOne Software (Applied Biosystems) using Relative Quantitation/Comparative CT (ΔΔCT). […]
Conidia from strains were inoculated at an OD595 equal to 0.05 in 50 ml Vogel's salts (45) with 2% w/v sucrose in a 250 ml Erlenmeyer flask and grown under constant light at 200 rpm for 16 hours. […] Three independent biological duplicates (flasks) were evaluated for each time point. […]
(§3) Quantitative RT-PCR was performed using the EXPRESS One-Step SYBR GreenER Kit (Invitrogen) and the StepOnePlus Real-Time PCR System (Applied Biosystems). […] Data Analysis was performed by the StepOne Software (Applied Biosystems) using the Relative Quantitation/Comparative CT (ΔΔCT) setting. […]

[3] = system: NCU05924 (endoxylanase, gh10-1); test: mRNA sequencing (RNA-Seq), transcript abundance of gh10-1; assay type: cell-based, Neurospora crassa; details: Δ3βG mutant; 4 hours after transfer to 0.2% cellobiose
Method: (§4) Conidia from strains were inoculated at an OD595 equal to 0.05 in 50 ml Vogel's salts (45) with 2% w/v sucrose in a 250 ml Erlenmeyer flask and grown under constant light at 200 rpm for 16 hours. Biomass was then spun at 4200 rpm for 10 minutes and washed in Vogel's salts twice to remove any excess sucrose. Biomass was then added to a new flask containing 50 ml Vogel's salts supplemented with 1% w/v sucrose, 0.2% w/v cellobiose (Sigma) or 1% w/v Avicel® PH 101 (Sigma). Cultures were induced for 4 hrs under constant light at 200 rpm. The culture biomass was then harvested by filtration over a Whatman glass microfiber filter (GF/F) on a Buchner funnel and washed with 50 ml Vogel's salts. The biomass was flash frozen in liquid nitrogen and stored at −80° C. Three independent biological duplicates (flasks) were evaluated for each time point.
Total RNA from frozen samples was isolated using Zirconia/Silica beads (0.5 mm diameter; Biospec) and a Mini-Beadbeater-96 (Biospec) with 1 mL TRIzol reagent (Invitrogen) according to the manufacturer's instructions. […]
mRNA sequencing was performed using an Illumina kit (RS-100-0801) with isolated RNA. The final cDNA library was quantified by an Agilent bioanalyzer 2000 and sequenced using an Illumina Genome Analyzer-II using standard Illumina operating procedures. […]

[4] = system: cellobiohydrolase I (cbh-1, NCU07340); test: Quantitative RT-PCR of cbh-1 expression after 4 h induction with a carbon source; assay type: cell-based, Neurospora crassa
Method: as §1, §2
Quantitative RT-PCR was performed using the EXPRESS One-Step SYBR GreenER Kit (Invitrogen) and the StepOnePlus Real-Time PCR System (Applied Biosystems). Reactions were performed in triplicate with a total reaction volume of 10 ul including 300 nM each forward and reverse primers and 75 ng template RNA. Data Analysis was performed by the StepOne Software (Applied Biosystems) using Relative Quantitation/Comparative CT (ΔΔCT). Data was normalized to the endogenous control actin with expression on sucrose as the reference sample. Error bars indicate a 95% confidence interval. The RT-PCR primers were used as described in (Tian et al., 2009).
as §4, with “The biomass was flash frozen in liquid nitrogen and stored at −80° C.” left out, “point. […]” for “point.”
as §3

[5] = WT strain, 2% carbon source, 4 h induction
[6] = triple β-glucosidase mutant, 2% carbon source, 4 h induction
[7] = Δcre-1 strain, shifted from sucrose to 0.2% cellobiose for 4 hrs

O=C[C@H](O)[C@@H](O)[C@H](O[C@@H]1O[C@H](CO)[C@@H](O)[C@H](O)[C@H]1O)[C@H](O)CO [cellobiose]
protein in the supernatant ([1]; WT): 0.05 mg/mL | protein in the supernatant ([1]; Δ3βG): 0.12 mg/mL | protein in the supernatant ([1]; Δ3βGΔcre): 0.24 mg/mL | cbh-2 relative expression compared to sucrose [2, 5]: no change | cbh-2 increase in relative expression over expression on sucrose [2, 6]: 2,100 fold | induction of gh6-2 [2, 7]: 85 fold | FPKMs of NCU05924 (endoxylanase, gh10-1) [3]: 10,000 FPKMs | induction for cbh-1 compared to relative expression on sucrose [4, 5]: 20 fold | cbh-1 increase in relative expression over expression on sucrose [4, 6]: 6,500 fold | increase in transcription of cbh-1 above expression on sucrose in the same strain ([4]; Δcre-1 strain, 4 h induction (Example 1)): 600 fold | induction of cbh-1 [4, 7]: 3,000 fold
